# In article doi:10.1101/2025.11.04.686469, “Discovery of Host-Directed Small Molecules with Broad Anti-Leishmanial Efficacy” (bioRxiv, 2025):
# Columns and labels:
# [1] = test system: intracellular L. donovani amastigotes; assay: Luminescent-based evaluation of intracellular anti-leishmanial activity in THP-1 macrophages; type: cell-based, Leishmania donovani; details: intracellular Leishmania donovani in THP1 macrophages, luminescence assay (Supplemental Table 2); read-out: Lum IC50
# Description: Luminescent strains, L. donovani LV82 expressing firefly luciferase (a kind gift from Dr. Abhay Satoskar, Ohio State University) and L. mexicana (NR-51210, ATCC) expressing renilla luciferase were used to evaluate the effect of the compounds in intracellular and extracellular conditions. Wild-type L. donovani LV82 (ATCC) were used for Giemsa staining based experiments. All parasites were cultured at 25°C and 5% CO2 in M199 media (Corning) supplemented with 10% FBS, 1% penicillin/streptomycin, and hemin (0.01 mg/mL), and used in experiments up to passage 15.
# THP-1 cells were seeded in a 96 well plate (25,000 cells/well) overnight then differentiated with 150 nM phorbol 12-myristate 13-acetate (PMA) over 72 hours (Supplemental Figure 1). […] Briefly, promastigotes of a known cell density were resuspended in RPMI media (with 10% FBS, 1% P/S and 0.05 mM β-mercaptoethanol) and incubated with adhered THP-1 cells over 18 hours. After infection, cells were washed three times with fresh media to remove extracellular promastigotes.
# Infected macrophages were then treated with compounds solubilized in DMSO ranging from 0.1-10 μM in concentrations. After 72 hours of treatment, the viability of the amastigotes within macrophages was determined using Promega firefly luminescence assay (Cat E1500) or Pierce Renilla luciferase assay (Cat 16166) for L. donovani and L. mexicana strains, respectively. Briefly, media was removed, and cells were lysed with the assay lysis buffer. The luciferase substrate was then incubated with the lysed cells for 10 min at room temperature and luminescence of live Leishmania was measured in a white opaque 96 well plate using a Biotek plate reader.
# [2] = test system: THP-1 macrophages; assay: Effect of compounds on host cell viability (MTT); type: cell-based; details: read-out: 24h LC50; THP1 macrophages, 24-hour incubation, MTT assay (Supplemental Table 2)
# Description: The cells were cultured at 37C, 5% CO2 in RPMI medium (ATCC) supplemented with 10% FBS, 1% Penicillin/Streptomycin and 0.05 mM of β-mercaptoethanol. Cells were used in experiments up to passage 10.
# Effect of the compounds on THP-1 cell viability measured using thiazolyl blue tetrazolium bromide which measures cell metabolic activity (MTT). THP-1 cells were seeded in a 96 well plate (25,000 cells/well) overnight then differentiated with 150 nM phorbol 12-myristate 13-acetate (PMA) over 72 hours. Macrophages were then treated with compounds resuspended in RPMI media (1- 50 μM) for 24 hours. Media was replaced with thiazolyl blue tetrazolium bromide solubilized in RPMI media (0.5 mg/mL) and incubated at 37°C for 2 hours. The reduced formazan crystals were solubilized with isopropyl alcohol and the absorbance of the resulting solution was measured at 560 nm with a background subtraction at 670 nm. […] This process was repeated with a 72-hr incubation and extended concentration range (1 - 300 μM) for select compounds.
SMILES,IC50 [1] [µM],CC50 [2] [µM]
FC(F)(F)c1cc(-c2ccc(Cl)cc2)n(-c2ccc(Br)cc2)n1 [Compound 194],> 10,> 50
FC(F)(F)c1cc(-c2ccccc2C(F)(F)F)n(-c2ccc(Br)cc2)n1 [Compound 255],> 10,> 50
FC(F)(F)c1cn(-c2ccc(N3CCNCC3)cc2)c(-c2ccc(Cl)cc2)n1 [Compound 51],8.2,25.7
CC(C)C#Cc1ccc(-c2cc(C(F)(F)F)nn2-c2ccc(N3CCNCC3)cc2)cc1 [Compound 45],3.7,3.2
FC(F)(F)c1ccc(-c2ccc3ncn(-c4ccc(Br)cc4)c3c2)cc1 [Compound 136],> 10,> 50
FC(F)(F)c1ccc(-c2ccc(-c3cc(C(F)(F)F)nn3-c3ccc(NCCCCOc4ccccc4)cc3)cc2)cc1 [Compound 68],> 10,34.7
CN(C)c1ccc(-c2cc(C(F)(F)F)nn2-c2ccc(Br)cc2)cc1 [Compound 214],> 10,> 50
Cc1ccc(-n2nc(C(F)(F)F)cc2-c2ccc(-c3ccc(C(F)(F)F)cc3)cc2)c(C)c1 [Compound 185],> 10,> 50
NCC(=O)Nc1ccc(-n2nc(C(F)(F)F)cc2C2CCCCC2)cc1 [Compound 341],4,26.5
O=C(O)c1ccc(-n2cc(C(F)(F)F)nc2-c2ccc(-c3ccc(C(F)(F)F)cc3)cc2)c(F)c1 [Compound 176],> 10,> 50
FC(F)(F)c1ccc(-c2cc(C(F)(F)F)nn2-c2ccc(NC3CCNC3)cc2)cc1 (stereo not shown) [Compound 252],2.3,14.4
CC(=O)c1ccc(-n2cc(C(F)(F)F)nc2-c2ccc(-c3ccccc3)cc2)cc1 [Compound 184],5,> 50
FC(F)(F)c1ccc(-c2ccc(-c3cc(C(F)(F)F)nn3-c3ccc(NC4CCN(Cc5ccccc5)C4)cc3)cc2)cc1 (stereo not shown) [Compound 114],> 10,13.6
FC(F)(F)c1ccc(-c2ccc(-c3cc(C(F)(F)F)nn3-c3ccc(NC4CC(Cc5ccc(Cl)cc5)C4)cc3)cc2)cc1 (stereo not shown) [Compound 66],> 10,> 50
NCC(=O)N1CC(Nc2ccc(-n3nc(C(F)(F)F)cc3-c3ccc(-c4ccc(C(F)(F)F)cc4)cc3)cc2)C1 [Compound 118],2.6,6.2
FC(F)(F)c1cc(C2CCCCC2)n(-c2ccc(N3CCC(NCc4ccccc4)CC3)cc2)n1 [Compound 336],2.4,15.9
CC(C)C#Cc1ccc(-c2cc(C(F)(F)F)nn2-c2ccc(N3CCC(NCc4cccc(F)c4)C3)cc2)cc1 (stereo not shown) [Compound 100],> 10,> 50
CNS(=O)(=O)Cc1ccc(-n2nc(C(F)(F)F)cc2-c2ccc(-c3ccc(C(F)(F)F)cc3)cc2)cc1 [Compound 191],> 10,12
O=[N+]([O-])c1ccc(-n2cnc3ccc(Br)cc32)cc1 [Compound 138],> 10,> 50
CC(C)(C)c1cc(C(F)(F)F)nn1-c1ccc(Br)cc1 [Compound 201],> 10,> 50
FC(F)(F)c1cc(C2CCCCC2)n(-c2ccc(NC3CCN(Cc4ccccc4)C3)cc2)n1 (stereo not shown) [Compound 356],2,15.5
CC(C)C#Cc1ccc(-c2cc(C(F)(F)F)nn2-c2ccc([N+](=O)[O-])cc2)cc1 [Compound 94],> 10,29
N#Cc1ccc(CN2CCC(Oc3ccc(-n4nc(C(F)(F)F)cc4C4CCCCC4)cc3)CC2)cc1 [Compound 373],7,> 50
FC(F)(F)c1c[nH]c(-c2ccc(-c3ccccc3)cc2)n1 [Compound 31],–,> 50
O=[N+]([O-])c1ccc(-n2nc(C(F)(F)F)cc2-c2ccc(-c3ccc(C(F)(F)F)cc3)cc2)cc1 [Compound 9],–,> 50

SMILES,IC50 [1] [µM],CC50 [2] [µM]
FC(F)(F)c1ccc(-c2ccc(-c3cc(C(F)(F)F)nn3-c3ccc(NC4CCN(Cc5ccc(-c6ccccc6)cc5)C4)cc3)cc2)cc1 (stereo not shown) [Compound 36],–,> 50
FC(F)(F)c1ccc(-c2ccc(-c3cc(C(F)(F)F)nn3-c3ccc(N4CCC(NCc5ccccc5Cl)C4)cc3)cc2)cc1 (stereo not shown) [Compound 12],–,> 50
Oc1ccc(CN2CCC(Oc3ccc(-n4nc(C(F)(F)F)cc4C4CCCCC4)cc3)CC2)cc1 [Compound 374],–,8.2
FC(F)(F)c1cc(-c2ccco2)n(-c2ccc(Br)cc2)n1 [Compound 267],–,> 50
NC(=O)CNc1ccc(-n2cc(C(F)(F)F)nc2-c2ccc(C(F)(F)F)cc2)cc1 [Compound 405],–,> 50
CCCN(CCC)CCc1c[nH]c2ccccc12 [Compound 411],–,> 50
O=[N+]([O-])c1ccc(-n2nc(C(F)(F)F)cc2-c2ccc(C#CC3CC3)cc2)cc1 [Compound 39],–,> 50
FC(F)(F)c1ccc(-c2nc(C(F)(F)F)cn2CC2CCNC2)cc1 (stereo not shown) [Compound 292],–,> 50
Fc1cccc(COC2CCN(c3ccc(-n4nc(C(F)(F)F)cc4C4CCCCC4)cc3)C2)c1 (stereo not shown) [Compound 415],–,> 50
FC(F)(F)c1ccc(-c2ccc(-c3cc(C(F)(F)F)nn3-c3ccc(N4CCC(NCc5cccc(Cl)c5Cl)C4)cc3)cc2)cc1 (stereo not shown) [Compound 13],–,> 50
O=C(CO)Nc1ccc(-n2cc(C(F)(F)F)nc2-c2ccc(C(F)(F)F)cc2)cc1 [Compound 404],–,> 50
Fc1ccccc1CNC1CCN(c2ccc(-n3nc(C(F)(F)F)cc3-c3ccc(-c4ccc(C(F)(F)F)cc4)cc3)cc2)C1 (stereo not shown) [Compound 21],–,> 50
O=[N+]([O-])c1ccc(-n2nc(C(F)(F)F)cc2-c2ccc(Br)cc2)cc1 [Compound 37],–,> 50
N#Cc1ccc(CNC2CCN(c3ccc(-n4nc(C(F)(F)F)cc4-c4ccc(-c5ccc(C(F)(F)F)cc5)cc4)cc3)C2)cc1 (stereo not shown) [Compound 19],–,> 50
CCc1cc(C(F)(F)F)nn1-c1ccc(Br)cc1 [Compound 316],–,> 50
N#Cc1ccc(COC2CCN(c3ccc(-n4nc(C(F)(F)F)cc4C4CCCCC4)cc3)C2)cc1 (stereo not shown) [Compound 413],–,> 50
Cc1cc(C(F)(F)F)n(-c2ccc(NC3CCNC3)cc2)n1 (stereo not shown) [Compound 284],–,> 50
FC(F)(F)c1ccc(-c2cc(C(F)(F)F)nn2CCNC2CCN(Cc3ccccc3)C2)cc1 (stereo not shown) [Compound 294],–,28.2
CC(C)(C)OC(=O)N1CCC(Nc2ccc(-n3nc(C(F)(F)F)cc3-c3ccc(-c4ccc(C(F)(F)F)cc4)cc3)cc2)C1 (stereo not shown) [Compound 15],–,> 50
Nc1ccc(-n2cc(C(F)(F)F)nc2-c2ccc(-c3ccc(C(F)(F)F)cc3)cc2)cc1 [Compound 76],> 10,–
NCC(=O)Nc1ccc(-n2ccnc2-c2ccc(C(F)(F)F)cc2)cc1 [Compound 406],–,> 50
CC(C)(C)OC(=O)N1CCC(Nc2ccc(-n3nc(C(F)(F)F)cc3-c3ccco3)cc2)C1 (stereo not shown) [Compound 269],–,> 50
CCCCNc1ccc(-n2nc(C(F)(F)F)cc2-c2ccc(-c3ccc(C(F)(F)F)cc3)cc2)cc1 [Compound 57],–,> 50
CC(C)(C)OC(=O)N1CCN(c2ccc(-n3nc(C(F)(F)F)cc3-c3ccc(Br)cc3)cc2)CC1 [Compound 41],–,> 50
FC(F)(F)c1cc(C(F)(F)F)n(-c2ccc(Br)cc2)n1 [Compound 276],–,32.2
